Assay type in all cases: physicochemical
Data set [1] is described as follows: Slurry stability study at room temperature (25° C.), 4 weeks, resulting form by FTIR. As to conditions: 25° C., 4 weeks, FTIR. The procedure: Slurry stability Maturation studies were initially conducted for the purpose of identifying the most […] stable form at room temperature (25° C.).
In this set of experiments, both the individual forms and mixtures of forms were slurried in several solvents for 4 weeks, then filtered and analyzed to determine the resulting form. The first set of experiments included pure Form 1, Form 2, Form 3, and mixtures of these forms in equal amounts. The solvents included methanol, ethyl acetate, MEK, and methyl THF in order to investigate a range of solvent polarity. Additional experiments were conducted with a mixture of Form 1 and Form 4 in MEK and methanol.
Analysis was performed by FTIR due to ease of analysis for small quantities. It is interesting to note that the acid carbonyl is shifted to a different location for each polymorph. The results for the first set of experiments are listed below, comparing the starting form with the final form.

A short description of data set [2]: Physical stability of solid state forms at 80° C./75% RH, by FTIR. The note with it: 1 week (7 days), open glass vials. On the procedure: The physical stability of Forms 1, 2, and 3 was investigated at 80° C./75% RH in order to determine if interconversion was observed. The samples were examined by FTIR after stressing 1 week in open glass vials.
Data set [3] can be described thus: Slurry conversion studies at 40-70° C. with Forms 1 and 2. The procedure: Slurry conversation studies were also conducted at 40-70° C. with Forms 1 and 2 to determine a transition temperature between the forms. A mixture of Form 1 and Form 2 at a (1:1 ratio) was slurried at 40° C., 50° C., 60° C., and 70° C. in two different solvents at each temperature and then analyzed to determine the direction of transformation. At 40° C. and 50° C., Methanol and MEK were used. At 60° C. and 70° C. MEK and 1-Pentanol were used.

Data set [4] in a line: Solubility of polymorphs at pH 7.4 in phosphate buffer at 25° C. As to conditions: pH 7.4 phosphate buffer; for Concentration (equilibrium solubility): 24 hr. On the procedure:
The solubility of the different polymorphs was determined at pH 7.4 in phosphate buffer at 25° C. Samples were analyzed as a function of time for each form to determine the equilibrium values. The residual solids from each sample were analyzed to verify that the form was unchanged during the experiment. The concentration (mg/mL) versus time data is listed below for each form: […]

SMILES strings stand for the structures. Marks after values point to notes of the source that are not given here.

For `COc1ccc(C(=O)NC2(C(=O)O)Cc3ccccc3C2)cc1OCCc1cccc(C)c1` [Form 2, 2-(4-methoxy-3-(3-methylphenethoxy)benzamido)-2,3-dihydro-1H-indene-2-carboxylic acid], the “Final form after slurry” value in data set [1] (slurried in MEK) is listed as “converts to crystalline Form 1”; in data set [1] (slurried in ethyl acetate), “Form 2”; in data set [1] (slurried in methanol), “Form 2”; in data set [1] (slurried in methyl THF), “Form 2”. In data set [2], the “Change in FTIR spectrum after storage” value is listed as “unchanged FTIR”. Also, the “Resulting form after slurry” value in data set [3] (slurried in MEK at 40° C.), in data set [3] (slurried in MEK at 50° C.), in data set [3] (slurried in methanol at 40° C.) and in data set [3] (slurried in methanol at 50° C.) was “converts to crystalline Form 1” in each case. In data set [4] (24 hours), the “24 hour solubility greater than Form 1” value was “more than 30%”. Moreover, the “Concentration (solubility)” value in data set [4] (1 hr) was determined as 34 µg/mL; in data set [4] (2 hr), 39 µg/mL; in data set [4] (3 hr), 43 µg/mL. The “Concentration (equilibrium solubility)” value in data set [4] is on record as 0.057* mg/mL.

As to `COc1ccc(C(=O)NC2(C(=O)O)Cc3ccccc3C2)cc1OCCc1cccc(C)c1` [Form 3, 2-(4-methoxy-3-(3-methylphenethoxy)benzamido)-2,3-dihydro-1H-indene-2-carboxylic acid], the “Final form after slurry” value in data set [1] (slurried in MEK), in data set [1] (slurried in ethyl acetate), in data set [1] (slurried in methanol) and in data set [1] (slurried in methyl THF) was “converts to crystalline Form 1” each time. Besides, the “Change in FTIR spectrum after storage” value in data set [2] is “unchanged FTIR”. Also, the “Equilibrium solubility relative to Form 1” value in data set [4] (24 hours) is given as “more than double”. Besides, the figures for the “Concentration (solubility)” value in data set [4] (1 hr), in data set [4] (2 hr) and in data set [4] (3 hr) were 83 µg/mL, 93 µg/mL and 95 µg/mL, respectively. For the same molecule, the “Concentration (equilibrium solubility)” value in data set [4] turned out to be 0.097 mg/mL.

For the molecule `COc1ccc(C(=O)NC2(C(=O)O)Cc3ccccc3C2)cc1OCCc1cccc(C)c1` [Form 4, 2-(4-methoxy-3-(3-methylphenethoxy)benzamido)-2,3-dihydro-1H-indene-2-carboxylic acid], the “Equilibrium solubility relative to Form 1” value in data set [4] (24 hours) was “more than double”. Further, the “Concentration (solubility)” value is 79 µg/mL in data set [4] (1 hr), 89 µg/mL in data set [4] (2 hr) and 105 µg/mL in data set [4] (3 hr). In addition, in data set [4], the “Concentration (equilibrium solubility)” value is on record as 0.102 mg/mL.

Regarding `COc1ccc(C(=O)NC2(C(=O)O)Cc3ccccc3C2)cc1OCCc1cccc(C)c1` [Forms 1, 2, 3], the “Final form after slurry” value in data set [1] (slurried in MEK), in data set [1] (slurried in methanol) and in data set [1] (slurried in methyl THF) was “Form 1” throughout.

In the case of `COc1ccc(C(=O)NC2(C(=O)O)Cc3ccccc3C2)cc1OCCc1cccc(C)c1` [mixture of Form 1 and Form 2], the “Resulting form after slurry” value in data set [3] (slurried in 1-pentanol at 60° C.) is on record as “Form 2”; in data set [3] (slurried in 1-pentanol at 70° C.) it was “Form 2”; in data set [3] (slurried in MEK at 40° C.), “Form 1”; in data set [3] (slurried in MEK at 50° C.) it was “Form 1”; in data set [3] (slurried in MEK at 60° C.), “Form 2”; in data set [3] (slurried in MEK at 70° C.), “Form 2”. Further, the “Resulting form after slurry” value in data set [3] (slurried in methanol at 40° C.) and in data set [3] (slurried in methanol at 50° C.) was “Form 1” in each case.

As for `COc1ccc(C(=O)NC2(C(=O)O)Cc3ccccc3C2)cc1OCCc1cccc(C)c1` [mixtures of Form 4 and Form 1], the “Final form after slurry” value in data set [1] (slurried in MEK) and in data set [1] (slurried in methanol) was “convert to Form 1” throughout.
